Series [1] addresses dopamine transporter (DAT) (Rattus norvegicus, UniProt P23977). The series is described as follows: Dopamine reuptake ([^3H]dopamine uptake) inhibition in rat brain synaptosomes.
Experimental: Freshly removed caudate was homogenized in 10% ice-cold sucrose with 12 strokes of a hand-held Potter-Elvehj em homogenizer followed by centrifugation at 1000×g for 10 min. The supernatants were saved on ice and used immediately. Transporter activity was assessed using 5 nM [^3H]dopamine. […] The selectivity of the uptake assay for dopamine active transporter (DAT) was optimized by including 100 nM citalopram and 100 nM desipramine as blockers of serotonin transporter (SERT) and norepinephrine transporter (NET) in the sucrose solution and assay buffer. Uptake inhibition assays were conducted at 25° C. and were initiated by adding 100 μl of tissue to 900 μL assay buffer containing test drug and [^3H]dopamine. Test drugs were diluted in assay buffer containing 1 mg/mL bovine serum albumin. Nonspecific uptake was measured by incubating in the presence of 10 μM indatraline. The reactions were stopped after 15 minutes by rapid vacuum filtration with a cell harvester (BRANDEL) over GF/B filters (Whatman) presoaked in wash buffer maintained at 25° C. (10 mM Tris-HCl, pH 7.4/150 mM NaCl). Filters were rinsed with 6 mL wash buffer and retained tritium was quantified by a MicroBeta liquid scintillation counter (PerkinElmer) after overnight extraction in 0.6 mL of liquid scintillation cocktail (Cytoscint, ICN). The data from three experiments were pooled and fit to a dose-response curve equation (using Kaleidagraph), to yield an Emax and EC50 value.
The data from three experiments were pooled and fit to a dose-response curve equation (using KaleidaGraph; Synergy Software, Reading, Pa.) to yield an Emax and IC50 value.
Setting [2] is: DA Uptake EC50 (nM ± SD), rat caudate synaptosomes, 5 nM [^3H]dopamine, 15 min, 25° C., three experiments pooled.
[3] abbreviates: read-out: DA Uptake Emax (% I ± SD).

30 compounds from patent US9873702B2, “Heterocyclic compounds as biogenic amine transport modulators” (Southern Research Institute, priority 2014, dated 2018) can be followed below.

“Also recorded” adds a separate entry of the source. Where two headings read alike, the source gives them in different places.

Sequence of dopamine transporter (DAT) (P23977 whole entry): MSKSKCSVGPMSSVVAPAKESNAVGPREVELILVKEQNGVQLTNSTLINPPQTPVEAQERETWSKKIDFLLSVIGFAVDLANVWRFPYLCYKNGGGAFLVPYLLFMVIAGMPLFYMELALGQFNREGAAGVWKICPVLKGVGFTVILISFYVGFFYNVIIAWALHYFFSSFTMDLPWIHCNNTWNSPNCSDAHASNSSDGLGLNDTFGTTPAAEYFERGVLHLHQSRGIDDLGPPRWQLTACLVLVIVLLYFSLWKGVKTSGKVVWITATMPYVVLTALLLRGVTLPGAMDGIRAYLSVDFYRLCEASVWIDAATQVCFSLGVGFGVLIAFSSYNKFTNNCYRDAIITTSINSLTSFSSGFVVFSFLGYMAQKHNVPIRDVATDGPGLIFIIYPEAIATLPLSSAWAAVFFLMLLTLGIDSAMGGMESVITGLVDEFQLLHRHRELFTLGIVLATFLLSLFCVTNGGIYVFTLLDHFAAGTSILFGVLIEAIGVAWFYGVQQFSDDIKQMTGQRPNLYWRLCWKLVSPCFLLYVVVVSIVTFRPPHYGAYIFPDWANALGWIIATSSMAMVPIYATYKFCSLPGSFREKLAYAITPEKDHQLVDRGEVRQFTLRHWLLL

With `COc1ccc2nc(-c3ccc4[nH]ccc4c3)nc(NCC(c3ccccc3)c3ccccc3)c2c1` [compound 61, N-(2,2-Diphenylethyl)-2-(1H-Indol-5-yl)-6-Methoxyquinazolin-4-Amine], the melting point was determined as 112 °C. This compound also gave an IC50 in series [1] (setting [2]) of 115 ± 20 nM. Also, the Emax in series [1] (setting [3]) was 80 ± 3%.
Compound `c1ccc(C(CCNc2nc(-c3cc4ccccc4s3)nc3ccccc23)c2ccccc2)cc1` [compound 19, N-(3,3-Diphenylpropyl)-2-(Benzo [B]Thiophen-2-yl)Quinazolin-4-Amine] yielded a melting point of 201 to 203 °C.
`COC(CNc1nc(-c2cn3ccnc3cc2C)nc2ccccc12)c1ccccc1` (stereo not shown) [compound 187, N-(2-Methoxy-2-phenylethyl)-2-(7-methylimidazo[1,2-a]pyridin-6-yl)quinazolin-4-amine] gave a melting point of 215 to 218 °C. The compound also yielded an IC50 in series [1] (setting [2]) of 5.7 ± 1.6 nM. Moreover, the Emax in series [1] (setting [3]) amounted to 74 ± 3%.
`CCN(CC)C(=O)[C@]1(c2ccccc2)C[C@@H]1CNc1nc(-c2ccc3nccn3c2)nc2ccccc12` [compound 170, (1R,2S)—N,N-Diethyl-2-(((2-(Imidazo[1,2-A]Pyridin-6-yl)Quinazolin-4-yl)Amino)Methyl)-1-Phenylcyclopropanecarboxamide] returned a melting point of 221 to 223 °C. In series [1] (setting [2]), this compound had an IC50 of 78 ± 14 nM. Also, in series [1] (setting [3]), the Emax amounted to 72 ± 2%.
Compound `O=C(N[C@H](CNc1nc(-c2ccc3nccn3c2)nc2ccccc12)c1ccccc1)c1ccccc1` [compound 150, (S)—N-(2-((2-(Imidazo[1,2-A]Pyridin-6-yl)Quinazolin-4-yl)Amino)-1-Phenylethyl)Benzamide] showed a melting point of 97 to 99 °C.
`CN(C)c1ncc(-c2cccc(C(CNc3nc(-c4cnc(N(C)C)nc4)nc4ccccc34)c3ccccc3)n2)cn1` (stereo not shown) [compound 57, 2-(2-(Dimethylamino)Pyrimidin-5-yl)-N-(2-(6-(2-(Dimethylamino)Pyrimidin-5-yl)Pyridin-2-yl)-2-Phenylethyl)Quinazolin-4-Amine] yielded a melting point of 112 °C. Also, inhibition in series [1] (setting [2]) was half-maximal at 55 ± 18 nM (IC50). Further, the Emax in series [1] (setting [3]) stood at 61 ± 3%.
The compound `c1ccc(C(CNc2nc(N3Cc4ccccc4C3)nc3ccccc23)c2ccccc2)cc1` [compound 189, N-(2,2-Diphenylethyl)-2-(Isoindolin-2-yl)Quinazolin-4-Amine] had a melting point of 293 to 295 °C. In addition, half-maximal inhibition in series [1] (setting [2]) (IC50) was put at 24 ± 7 nM. In series [1] (setting [3]), the maximum response (Emax) came to 83 ± 4%.
Compound `Cc1cc2nccn2cc1-c1nc(NCC(Oc2ccccc2)c2ccccc2)c2ccccc2n1` (stereo not shown) [compound 177, 2-(7-Methylimidazo[1,2-A]Pyridin-6-yl)-N-(2-Phenoxy-2-Phenylethyl)Quinazolin-4-Amine] showed a melting point of 243 to 246 °C. The IC50 in series [1] (setting [2]) turned out to be 2.3 ± 0.5 nM. Further, the Emax in series [1] (setting [3]) is 75 ± 3%.
`COc1cc2nc(-c3cccs3)nc(NCC(c3ccccc3)c3ccccc3)c2cc1OC` [compound 26, N-(2,2-Diphenylethyl)-6,7-Dimethoxy-2-(Thiophen-2-yl)Quinazolin-4-Amine] returned a melting point of 94 °C. The compound also gave an IC50 in series [1] (setting [2]) of 560 nM. Besides, in series [1] (setting [3]), the Emax stood at 100%.
For `c1ccc(C(Nc2nc(-c3cncnc3)nc3ccccc23)c2ccccc2)cc1` [compound 14, N-Benzhydryl-2-(pyrimidin-5-yl)quinazolin-4-amine], the melting point was found to be 210 °C. For the same compound, in series [1] (setting [2]), it took 234 ± 36 nM to reach half-maximal inhibition (IC50). Also, in series [1] (setting [3]), the Emax is 74 ± 2%.
`c1ccc(C(CNc2nc(N3CCc4[nH]ccc4C3)nc3ccccc23)c2ccccc2)cc1` [compound 163, 2-(6,7-Dihydro-1H-Pyrrolo[3,2-C]Pyridin-5(4H)-yl)-N-(2,2-Diphenylethyl)Quinazolin-4-Amine] displayed a melting point of 166 to 168 °C. Besides, in series [1] (setting [2]), the IC50 worked out at 3.7 ± 1.5 nM. In addition, the Emax in series [1] (setting [3]) amounted to 87 ± 6%.
The compound `c1ccc(C(CNc2nc(-c3cccc4[nH]ccc34)nc3ccccc23)c2ccccc2)cc1` [compound 32, N-(2,2-Diphenylethyl)-2-(1H-Indol-4-yl)Quinazolin-4-Amine] had a melting point of 100 °C. The compound also displayed an IC50 in series [1] (setting [2]) of 189 ± 37 nM. Moreover, the Emax in series [1] (setting [3]) came to 68 ± 3%.
Consider `CN(C)Cc1cnc2ccc(-c3nc(NCC(c4ccccc4)c4ccccc4)c4ccccc4n3)cn12` [compound 112, 2-(3-((Dimethylamino)methyl)Imidazo[1,2-A]pyridin-6-yl)-N-(2,2-Diphenylethyl)Quinazolin-4-Amine], for which the melting point is 240 °C.
Take `c1ccc(C(CNc2nc(-n3ccnc3)nc3ccccc23)c2ccccc2)cc1` [compound 48, N-(2,2-Diphenylethyl)-2-(1H-Imidazol-1-yl)Quinazolin-4-Amine]: the melting point was found to be 231 °C. Besides, inhibition in series [1] (setting [2]) was half-maximal at 38 ± 5 nM (IC50). For the same compound, in series [1] (setting [3]), the Emax was determined as 73 ± 2%.
Compound `CS(=O)(=O)n1ccc2cc(-c3nc(NCC(c4ccccc4)c4ccccc4)c4ccccc4n3)ccc21` [compound 154, N-(2,2-Diphenylethyl)-2-(1-(Methylsulfonyl)-1H-Indol-5-yl)Quinazolin-4-Amine] returned a melting point of 144 to 146 °C. The same compound showed an IC50 in series [1] (setting [2]) of 56 ± 13 nM. In series [1] (setting [3]), the Emax stood at 73 ± 3%.
In the case of `CC(C)(C)OC(=O)N1CCc2cc(-c3nc(NCC(c4ccccc4)c4ccccc4)c4ccccc4n3)ccc21` [compound 74, Tert-Butyl 5-(4-((2,2-Diphenylethyl)Amino)Quinazolin-2-yl)Indoline-1-Carboxylate], the melting point is 127 °C.
Turning to `CC(C)(C)OC(=O)n1cc(-c2nc(NCC(c3ccccc3)c3ccccc3)c3ccccc3n2)c2ccccc21` [compound 72, Tert-Butyl 3-(4-((2,2-Diphenylethyl)Amino)Quinazolin-2-yl)-1H-Indole-1-Carboxylate], the melting point stood at 90 °C.
`CN1CCN(C(CNc2nc(-c3ccc4nccn4c3)nc3ccccc23)c2ccccc2)CC1` (stereo not shown) [compound 126, 2-(Imidazo[1,2-A]Pyridin-6-yl)-N-(2-(4-Methylpiperazin-1-yl)-2-Phenylethyl)Quinazolin-4-Amine] registered a melting point of 225 to 227 °C.
`Nc1ncc(-c2nc(NCC(c3ccccc3)c3ncccn3)c3ccccc3n2)cn1` (stereo not shown) [compound 104, 2-(2-Aminopyrimidin-5-yl)-N-(2Phenyl-2-(Pyrimidin-2-yl)Ethyl)Quinazolin-4-Amine] registered a melting point of 211 °C.
Take `c1ccc(C(CNc2nc(-c3cccc4cc[nH]c34)nc3ccccc23)c2ccccc2)cc1` [compound 33, N-(2,2-Diphenylethyl)-2-(1H-Indol-7-yl)Quinazolin-4-Amine]: the melting point was found to be 67 °C.
As for `Cc1cc2nccn2cc1-c1nc(NCC(c2ccccc2)N(C)C)c2ccccc2n1` (stereo not shown) [compound 196, N1,N1-Dimethyl-N2-(2-(7-Methylimidazo[1,2-A]Pyridin-6-yl)Quinazolin-4-yl)-1-Phenylethane-1,2-Diamine], the IC50 in series [1] (setting [2]) was found to be 14 ± 5 nM. For the same compound, the Emax in series [1] (setting [3]) turned out to be 77 ± 4%.
Compound `O=S(=O)(c1ccccc1)n1ccc2cc(-c3nc(NCC(c4ccccc4)c4ccccc4)c4ccccc4n3)ccc21` [compound 36, N-(2,2-Diphenylethyl)-2-(1-(Phenylsulfonyl)-1H-Indol-5-yl)Quinazolin-4-Amine] gave a melting point of 203 °C.
The compound `c1ccc(C(CNc2nc(-c3ccc4nccn4c3)nc3ccccc23)N2CCOCC2)cc1` (stereo not shown) [compound 122, 2-(Imidazo[1,2-A]Pyridin-6-yl)-N-(2-Morpholino-2-Phenylethyl)Quinazolin-4-Amine] came in with a melting point of over 250 °C.
On the same count and under the same terms, to `Clc1cccc(C(CNc2nc(-c3cccnc3)nc3ccccc23)c2ccccc2)n1` (stereo not shown) [compound 53, N-(2-(6-Chloropyridin-2-yl)-2-Phenylethyl)-2-(Pyridin-3-yl)Quinazolin-4-Amine] belongs 83 °C.
In series [1] (setting [2]), `c1ccc(C(CNc2nc(-c3ccc4c(c3)NCCC4)nc3ccccc23)c2ccccc2)cc1` [compound 83, N-(2,2-Diphenylethyl)-2-(1,2,3,4-Tetrahydroquinolin-7-yl)Quinazolin-4-Amine] registered an IC50 of 132 ± 43 nM. Besides, in series [1] (setting [3]), the Emax turned out to be 69 ± 4%.
For `CN(C)c1ccc(-c2nc(NCCc3ccccc3)c3ccccc3n2)cc1` [SRI-31335], the IC50 in series [1] (One-Site IC50 (nM), [^3H]DA uptake dose-response curve fit to one-component equation) is 156 ± 12 nM; in series [1] (Two-Site IC50-1 (nM), [^3H]DA uptake dose-response curve fit to two-component equation, component 1), 99 ± 63 nM; in series [1] (Two-Site IC50-2 (nM), [^3H]DA uptake dose-response curve fit to two-component equation, component 2) it was 564 ± 1180 nM. Further, the “efficacy of [^3H]DA (DAT) uptake inhibition, in words” value in series [1] (partial versus full inhibition) was “fully inhibits; also recorded: full-efficacy [^3H]DA uptake inhibitors”. Also, the Emax in series [1] (read-out: One-Site Emax (% I)) came out at 100 ± 1.5%; in series [1] (read-out: Two-Site Emax-1 (% I)), 76 ± 54%; in series [1] (read-out: Two-Site Emax-2 (% I)), 27 ± 53%.
`c1ccc(C(CNc2nc(-c3ccc4nccn4c3)nc3ccccc23)c2ccc[nH]2)nc1` (stereo not shown) [compound 159, 2-(Imidazo[1,2-A]pyridin-6-yl)-N-(2-(Pyridin-2-yl)-2-(1H-Pyrrol-2-yl)Ethyl)Quinazolin-4-Amine]: the melting point lay in the range of 235 to 237 °C.
For `Cc1cc2nccn2cc1-c1nc(NCC(c2ccc(F)cc2)c2ccc(F)cc2)c2ccccc2n1` [compound 203, N-(2,2-Bis(4-Fluorophenyl)Ethyl)-2-(7-Methylimidazo[1,2-a]Pyridin-6-yl)Quinazolin-4-Amine], the IC50 in series [1] (setting [2]) was 1.7 ± 0.2 nM. In addition, the Emax in series [1] (setting [3]) turned out to be 72 ± 1%.
Turning to `c1ccc(C(Nc2nc(-c3cc4ccccc4s3)nc3ccccc23)c2ccccc2)cc1` [compound 8, N-Benzhydryl-2-(benzo[b]thiophen-2-yl)quinazolin-4-amine], the melting point was in the range of 180 to 182 °C.
For `c1ccc(C(CNc2nc(-c3cnc4nccn4c3)nc3ccccc23)N2CCOCC2)cc1` (stereo not shown) [compound 128, 2-(Imidazo[1,2-A]Pyrimidin-6-yl)-N-(2-Morpholino-2-Phenylethyl)Quinazolin-4-Amine], 55 ± 10 nM corresponded to half-maximal inhibition in series [1] (setting [2]) (IC50). Also, the Emax in series [1] (setting [3]) is 69 ± 2%.
